Read-outs that look alike come from different tables or passages of the source.
Legend:
[1] = radiocontrast nephropathy, impaired renal excretory, endocrine and tubular function, cited from earlier work
[2] = treatment of oliguric prerenal acute renal failure, need for dialysis; format: in vivo, human; conditions: patients with acute renal failure progressed to oliguria (less than 300 ml urine output per day)
Source text: Adenosine receptor antagonists, especially aminophyllline, are used to treat or prevent acute renal failure. Adenosine antagonists are suited for prerenal acute renal failure only.

[3] = rat, glycerol-induced ARF, IV, administered before the toxic insult; cited from earlier work
[4] = human trials, radio-contrast renal injury, IV, administered before the toxic insult; cited from earlier work
[5] = patients, aminophylline toxicity; cited from earlier work
[6] = cyclosporin-A-induced renal failure with renal vasoconstriction; cited from earlier work

Cn1c(=O)c2[nH]cnc2n(C)c1=O [Theophyllin E]
protective role in preventing RCN [1]: effective in preventing RCN impaired renal excretory, endocrine and tubular function

Cn1c(=O)c2[nH]cnc2n(C)c1=O [aminophylline]
patients in whom the need for dialysis is obviated [2]: over 50% | protective role in preventing RCN ([1]; listed as Aminophylline): does not appear to add a protective role in preventing RCN | prevention of ARF [3]: dramatic in preventing ARF | prevention of ARF [4]: dramatic in preventing ARF | serum theophylline level at which nausea and vomiting usually occur [5]: around 20 micrograms/ml

Cn1c(=O)c2[nH]cnc2n(C)c1=O [theophylline]
restoration of renal function [6]: restored renal function significantly

— US6998404B2, “Treatment or prevention of acute renal failure” (priority 2001, dated 2006)
